Results on seven compounds are retold here after patent publication US9127003B2, “2-(azaindol-2-yl)benzimidazoles as PAD4 inhibitors” (Glaxo Group Limited, priority 2012, dated 2015).

The target in assay [1] is T1, Recombinant human PAD2 (residues 1-665) (Homo sapiens, UniProt Q9Y2J8).
T1 construct: Recombinant human PAD2 (residues 1-665); 6His-FLAG (N); made in house; host or cells: baculovirus-infected Sf9 insect cells
The assay is described as follows: PAD2 enzyme assay (NH3 release, BAEE substrate, fluorescence). Type of assay: biochemical. The settings on record: PAD2 enzyme assay above or similar assays; read-out: mean pIC50 (converted). On the procedure: Recombinant human PAD2 (residues 1-665) was expressed in baculovirus-infected Sf9 insect cells as an N-terminal 6His-FLAG-tagged fusion protein. Activity of the final product was determined using a FLINT NH3 release assay.
8 μl of PAD2 enzyme diluted to an assay concentration of 30 nM in assay buffer (100 mM HEPES, 50 mM NaCl, 2 mM DTT, 7.5% glycerol and 1.5 mM CHAPS pH 8), and added to wells containing 0.1 μl of various concentrations of compound or DMSO vehicle (0.8% final) in a Greiner high volume 384 well black plate. Following 30 mins pre-incubation at room temperature, the reaction was initiated by the addition of 4 μl of substrate buffer containing 180 uM N-a-benzoyl-L-arginine ethyl ester (BAEE), 100 mM HEPES, 50 mM NaCl, 240 uM CaCl2 (2H2O) and 2 mM DTT, pH 8.0. The reaction was stopped after 90 mins with the addition of 38 μl stop/detection buffer containing 50 mM EDTA, 2.6 mM phthalaldehyde and 2.6 mM DTT. Assay incubated at room temperature for 90 mins before measuring fluorescent signal (λex 405/λem 460) on an Envision plate reader (Perkin Elmer Life Sciences, Waltham, Mass., USA)

In assay [2] the target is T2, Recombinant human PAD4 (residues 1-663) (Homo sapiens, UniProt Q9UM07).
T2 construct: Recombinant human PAD4 (residues 1-663); GST (N, cleaved yes); made in house; host or cells: E. coli
The assay is described as follows: PAD4 enzyme assay (NH3 release, BAEE substrate, fluorescence). Type of assay: biochemical. The settings on record: PAD4 enzyme assay above (Conditions A or B) or similar assays; read-out: mean pIC50 (converted). On the procedure: Recombinant human PAD4 (residues 1-663) was expressed in E. coli as an N-terminal GST-tagged fusion protein. During purification of the protein, the GST tag was removed by cleavage with PreScission Protease (GE Healthcare). Activity of the final product was determined using a FLINT NH3 release assay.
(§1) 8 μl of PAD4 enzyme diluted to an assay concentration of 75 nm in assay buffer (a).: (100 mM HEPES, 50 mM NaCl, 2 mM DTT and 0.6 mg/mIBSA pH 8), or in assay buffer (b).: (100 mM HEPES, 50 mM NaCl, 2 mM DTT, 7.5% glycerol and 1.5 mM CHAPS pH 8), and added to wells containing 0.1 μl of various concentrations of compound or DMSO vehicle (0.8% final) in a Greiner high volume 384 well black plate. Following 30 mins pre-incubation at room temperature, the reaction was initiated by the addition of 4 μl of substrate buffer containing 3 mM N-a-benzoyl-L-arginine ethyl ester (BAEE), 100 mM HEPES, 50 mM NaCl, 600 uM CaCl2 (2H2O) and 2 mM DTT, pH 8.0. The reaction was stopped after 100 mins with the addition of 38 μl stop/detection buffer containing 50 mM EDTA, 2.6 mM phthalaldehyde and 2.6 mM DTT. Assay incubated at room temperature for 90 mins before measuring fluorescent signal (λex 413/λem 476) on an Envision plate reader (Perkin Elmer Life Sciences, Waltham, Mass., USA)
as §1, with “of 30 nM” for “of 75 nm”, “buffer” for “buffer (a).:”, “mg/mIBSA” for “mg/mIBSA pH 8), or in assay buffer (b).: (100 mM HEPES, 50 mM NaCl, 2 mM DTT, 7.5% glycerol and 1.5 mM CHAPS”, “after 60” for “after 100”, “(λex 405/λem 460)” for “(λex 413/λem 476)”

Each structure is given as a SMILES string. Where “and” joins values, the source holds several entries; their conditions need not be identical. Equal entries are not always repeated. Structures can show the parent of a compound that is named as a salt.

T1 sequence (Q9Y2J8 whole entry, the tested form may be a part): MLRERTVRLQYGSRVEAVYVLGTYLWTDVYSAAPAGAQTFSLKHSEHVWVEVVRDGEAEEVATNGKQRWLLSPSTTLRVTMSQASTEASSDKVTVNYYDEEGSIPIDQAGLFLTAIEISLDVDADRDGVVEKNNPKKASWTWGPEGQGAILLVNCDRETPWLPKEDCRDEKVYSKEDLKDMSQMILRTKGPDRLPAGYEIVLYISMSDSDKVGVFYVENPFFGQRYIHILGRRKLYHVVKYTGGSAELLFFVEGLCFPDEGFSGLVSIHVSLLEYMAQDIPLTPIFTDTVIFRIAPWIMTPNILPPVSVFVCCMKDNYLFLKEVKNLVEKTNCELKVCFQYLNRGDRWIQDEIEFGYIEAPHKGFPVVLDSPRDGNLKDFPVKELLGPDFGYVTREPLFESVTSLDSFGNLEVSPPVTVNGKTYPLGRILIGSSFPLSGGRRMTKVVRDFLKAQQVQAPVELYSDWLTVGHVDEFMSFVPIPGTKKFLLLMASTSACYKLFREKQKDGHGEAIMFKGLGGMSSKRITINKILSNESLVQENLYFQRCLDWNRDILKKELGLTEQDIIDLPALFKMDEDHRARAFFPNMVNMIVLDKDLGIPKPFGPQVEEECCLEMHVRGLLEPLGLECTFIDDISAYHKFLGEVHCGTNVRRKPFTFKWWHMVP
T2 sequence (Q9UM07 whole entry, the tested form may be a part): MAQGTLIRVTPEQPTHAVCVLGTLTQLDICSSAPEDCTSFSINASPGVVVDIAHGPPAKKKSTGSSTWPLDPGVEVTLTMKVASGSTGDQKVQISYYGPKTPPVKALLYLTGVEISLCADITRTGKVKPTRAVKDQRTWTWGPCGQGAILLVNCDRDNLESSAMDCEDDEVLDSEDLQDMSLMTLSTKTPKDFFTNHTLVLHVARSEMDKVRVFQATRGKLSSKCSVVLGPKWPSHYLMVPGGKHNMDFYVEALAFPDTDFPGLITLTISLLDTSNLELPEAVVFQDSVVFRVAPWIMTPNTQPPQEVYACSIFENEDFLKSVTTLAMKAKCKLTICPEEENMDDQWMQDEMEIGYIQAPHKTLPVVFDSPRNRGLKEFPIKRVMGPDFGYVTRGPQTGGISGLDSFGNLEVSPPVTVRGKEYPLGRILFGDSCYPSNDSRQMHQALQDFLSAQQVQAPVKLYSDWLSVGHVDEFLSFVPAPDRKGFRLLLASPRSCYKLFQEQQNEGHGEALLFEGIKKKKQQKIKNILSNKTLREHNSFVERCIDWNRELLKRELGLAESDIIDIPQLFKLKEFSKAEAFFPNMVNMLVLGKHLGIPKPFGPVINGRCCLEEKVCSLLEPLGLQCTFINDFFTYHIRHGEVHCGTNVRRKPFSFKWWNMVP

Take `COc1cc(C(=O)N2CCC[C@@H](N)C2)cc2nc(-c3cc4cccnc4n3CC3CC3)n(C)c12` [Example 10B, (R)-(3-Aminopiperidin-1-yl)(2-(1-(cyclopropylmethyl)-1H-pyrrolo[2,3-b]pyridin-2-yl)-7-methoxy-1-methyl-1H-benzo[d]imidazol-5-yl)methanone, hydrochloride]: the IC50 in assay [1] was 63.1 to 79.4 µM and > 79.4 µM; in assay [2], 0.0316 to 10 µM and 0.0501 µM.

Consider `COc1cc(C(=O)N2CCC[C@@H](N)C2)cc2nc(-c3cc4cccnc4n3CC(F)(F)F)n(C)c12` [Example 11B, (R)-(3-Aminopiperidin-1-yl)(7-methoxy-1-methyl-2-(1-(2,2,2-trifluoroethyl)-1H-pyrrolo[2,3-b]pyridin-2-yl)-1H-benzo[d]imidazol-5-yl)methanone, hydrochloride], for which the IC50 in assay [1] was 63.1 to 79.4 µM and > 79.4 µM; in assay [2] it was 0.0316 to 10 µM and 0.126 µM.

As for `Cn1c(-c2cc3cccnc3n2CC2CC2)nc2cc(C(=O)N3CC[C@@H](O)[C@@H](N)C3)ccc21` [Example 13, ((3S,4R)-3-Amino-4-hydroxypiperidin-1-yl)(2-(1-(cyclopropylmethyl)-1H-pyrrolo[2,3-b]pyridin-2-yl)-1-methyl-1H-benzo[d]imidazol-5-yl)methanone, hydrochloride], the IC50 in assay [1] is 63.1 to 79.4 µM; in assay [2] it was 0.0316 to 10 µM.

As for `COc1cc(C(=O)N2CC[C@@H](O)[C@@H](N)C2)cc2nc(-c3cc4cccnc4n3CC3CC3)n(C)c12` [Example 14, ((3S,4R)-3-Amino-4-hydroxypiperidin-1-yl)(2-(1-(cyclopropylmethyl)-1H-pyrrolo[2,3-b]pyridin-2-yl)-7-methoxy-1-methyl-1H-benzo[d]imidazol-5-yl)methanone, hydrochloride], the IC50 was > 79.4 µM in assay [1]; 0.0316 to 10 µM and 0.0794 µM in assay [2].

`COc1cc(C(=O)N2CCC[C@@H](N)C2)cc2nc(-c3cc4cccnc4n3CC(C)(C)C)n(C)c12` [Example 16, (R)-(3-Aminopiperidin-1-yl)(7-methoxy-1-methyl-2-(1-neopentyl-1H-pyrrolo[2,3-b]pyridin-2-yl)-1H-benzo[d]imidazol-5-yl)methanone]: the figures for the IC50 in assay [1] and in assay [2] were 63.1 to 79.4 µM and 0.0316 to 10 µM, respectively.

`CCn1c(-c2nc3cc(C(=O)N4CCC[C@H](N)C4)cc(OC)c3n2C)cc2cccnc21` [Example 19, (S)-(3-Aminopiperidin-1-yl)(2-(1-ethyl-1H-pyrrolo[2,3-b]pyridin-2-yl)-7-methoxy-1-methyl-1H-benzo[d]imidazol-5-yl)methanone, hydrochloride]: the IC50 in assay [1] was 63.1 to 79.4 µM; in assay [2], 0.0316 to 10 µM.

As to `COc1cc(C(=O)N2CCC[C@@H](N)C2)cc2nc(-c3cc4cccnc4n3CC(C)C)n(C)c12` [Example 22, (R)-(3-Aminopiperidin-1-yl)(2-(1-isobutyl-1H-pyrrolo[2,3-b]pyridin-2-yl)-7-methoxy-1-methyl-1H-benzo[d]imidazol-5-yl)methanone, hydrochloride], the IC50 in assay [1] is 63.1 to 79.4 µM; in assay [2], 0.0316 to 10 µM.
